The values below come from US8642592B2, “Oxo-heterocyclically substituted alkyl carboxylic acids and use thereof” (Bayer Intellectual Property GmbH, priority 2009, dated 2014).

What is called IC50 is the point on the concentration scale where inhibition reaches its midpoint. Read a low IC50 as higher potency.

One experiment addresses T1, sGC (Rattus norvegicus, UniProt P20595).
T1 construct: expressed in transfected cells; host or cells: CHO reporter cell line
T1 sequence (P20595 1-619): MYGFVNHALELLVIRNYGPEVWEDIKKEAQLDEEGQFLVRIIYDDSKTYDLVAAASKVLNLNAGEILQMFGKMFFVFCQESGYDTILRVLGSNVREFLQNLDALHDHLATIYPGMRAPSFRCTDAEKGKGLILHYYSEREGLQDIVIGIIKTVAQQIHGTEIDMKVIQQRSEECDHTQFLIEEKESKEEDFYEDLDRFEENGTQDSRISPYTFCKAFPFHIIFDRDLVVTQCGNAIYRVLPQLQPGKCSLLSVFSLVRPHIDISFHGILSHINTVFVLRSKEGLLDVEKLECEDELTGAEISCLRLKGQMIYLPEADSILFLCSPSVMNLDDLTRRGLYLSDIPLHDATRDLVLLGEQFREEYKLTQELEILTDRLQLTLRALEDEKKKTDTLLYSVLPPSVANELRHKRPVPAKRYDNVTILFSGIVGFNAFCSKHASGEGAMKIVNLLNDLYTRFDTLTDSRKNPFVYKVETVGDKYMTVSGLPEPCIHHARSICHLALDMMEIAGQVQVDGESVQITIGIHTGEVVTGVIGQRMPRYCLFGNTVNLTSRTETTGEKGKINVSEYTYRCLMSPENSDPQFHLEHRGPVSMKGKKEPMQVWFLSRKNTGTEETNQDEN
T1 sequence (P19686 1-690 partner): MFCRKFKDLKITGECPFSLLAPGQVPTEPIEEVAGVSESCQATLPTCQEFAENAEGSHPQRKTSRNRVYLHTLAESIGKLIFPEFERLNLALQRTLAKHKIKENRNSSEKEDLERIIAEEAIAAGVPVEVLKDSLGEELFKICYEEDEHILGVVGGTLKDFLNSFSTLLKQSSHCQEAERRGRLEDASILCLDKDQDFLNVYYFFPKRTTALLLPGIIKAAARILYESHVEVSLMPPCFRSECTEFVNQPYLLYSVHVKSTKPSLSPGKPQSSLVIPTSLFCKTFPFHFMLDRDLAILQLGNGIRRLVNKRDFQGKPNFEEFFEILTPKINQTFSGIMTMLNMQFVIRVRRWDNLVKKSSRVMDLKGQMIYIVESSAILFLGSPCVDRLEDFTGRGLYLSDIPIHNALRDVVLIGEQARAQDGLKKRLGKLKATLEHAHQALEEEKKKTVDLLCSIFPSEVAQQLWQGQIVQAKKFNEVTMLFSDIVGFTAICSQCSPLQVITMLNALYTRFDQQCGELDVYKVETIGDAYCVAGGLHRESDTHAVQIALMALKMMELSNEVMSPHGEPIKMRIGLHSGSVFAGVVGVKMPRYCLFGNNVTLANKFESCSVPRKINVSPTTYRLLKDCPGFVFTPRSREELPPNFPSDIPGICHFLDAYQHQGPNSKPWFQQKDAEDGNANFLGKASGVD
As to the kind of experiment: sGC-activating activity in the CHO reporter cell in vitro. In kind it is cell-based. The protocol: The cellular action of the compounds according to the invention is determined at a recombinant guanylate cyclase reporter cell line, as described in F. Wunder et al., Anal. Biochem. 339, 104-112 (2005).

The next experiment has as its target T2, Heme-containing sGC (Rattus norvegicus, UniProt P20595).
T2 construct: made in house; host or cells: baculovirus/Sf9 insect cells
T2 sequence (P20595 1-619): T1 sequence (P20595 1-619)
T2 sequence (P19686 1-690 partner): T1 sequence (P19686 1-690 partner)
As to the kind of experiment: Stimulation of recombinant soluble guanylate cyclase in vitro, heme-containing enzyme. The following applies: 0 μM Example 1. In kind it is biochemical. The source says:
Hoenicka, E. M. Becker, H. Apeler, T. Sirichoke, H. Schroeder, R. Gerzer and J.-P. Stasch, “Purified soluble guanylyl cyclase expressed in a baculovirus/Sf9 system: Stimulation by YC-1, nitric oxide, and carbon oxide”, J. Mol. Med. 77 (1999), 14-23. The heme-free guanylate cyclase is obtained by adding Tween 20 to the sample buffer (0.5% in the final concentration).
The activation of sGC by a test substance is reported as n-fold stimulation of the basal activity.

For experiment [1], the target named is T3, soluble guanylate cyclase (sGC) (Rattus norvegicus, UniProt P20595).
T3 construct: made in house; host or cells: baculovirus/Sf9 insect cells
T3 sequence (P20595 1-619): T1 sequence (P20595 1-619)
T3 sequence (P19686 1-690 partner): T1 sequence (P19686 1-690 partner)
As to the kind of experiment: Stimulation of sGC enzyme activity (PPi/luciferase detection). In kind it is biochemical. The following applies: sGC enzyme in vitro; for EC50: read-out: EC50 (concentration at 50% of maximum efficacy), activating action at the sGC enzyme. The method, then:
Soluble guanylate cyclase (sGC) converts on stimulation GTP into cGMP and pyrophosphate (PPi). PPi is detected with the aid of the assay described below. The signal produced in the assay increases as the reaction progresses and serves as a measure of the sGC enzyme activity under the given stimulation.
To carry out the assay, 29 μl of enzyme solution [0-10 nM soluble guanylate cyclase (prepared according to Honicka et al., J. Mol. Med. 77, 14-23 (1999)) in 50 mM TEA, 2 mM MgCl2, 0.1% BSA (fraction V), 0.005% Brij®, pH 7.5] are initially introduced into a microplate, and 1 μl of the substance to be tested (as a serially diluted solution in DMSO) is added. The mixture is incubated at room temperature for 10 min. Then 20 μl of detection mix [1.2 nM Firefly Luciferase (Photinus pyralis luciferase, Promega), 29 μM dehydroluciferin (prepared according to Bitler & McElroy, Arch. Biochem. Biophys. 72, 358 (1957)), 122 μM luciferin (Promega), 153 μM ATP (Sigma) and 0.4 mM DTT (Sigma) in 50 mM TEA, 2 mM MgCl2, 0.1% BSA (fraction V), 0.005% Brij®, pH 7.5] are added. The enzyme reaction is started by adding 20 μl of substrate solution [1.25 mM guanosine 5′-triphosphate (Sigma) in 50 mM TEA, 2 mM MgCl2, 0.1% BSA (fraction V), 0.005% Brij®, pH 7.5] and measured continuously in a luminometer. The extent of the stimulation by the substance to be tested can be determined relative to the signal of the unstimulated reaction.
The activation of heme-free guanylate cyclase is examined by addition of 25 μM of 1H-1,2,4-oxadiazolo[4,3-a]quinoxalin-1-one (ODQ) to the enzyme solution and subsequent incubation for 30 minutes and compared to the stimulation of the native enzyme.

The test system of another experiment is saphenous artery. As to the kind of experiment: Vasorelaxant effect in vitro (phenylephrine-contracted artery rings). Also noted: species or system Rabbits. The note with it: Oryctolagus cuniculus; concentration reducing phenylephrine-induced contraction of rabbit saphenous artery rings by 50%. The protocol:
Rabbits are anesthetized and sacrificed by intravenous injection of thiopental sodium (about 50 mg/kg) and exsanguinated. The saphenous artery is removed and divided into rings 3 mm wide. The rings are mounted singly on in each case a pair of triangular hooks open at the end and made of 0.3 mm-thick special wire (Remanium®). Each ring is placed under an initial tension in 5 ml organ baths with Krebs-Henseleit solution which is at 37° C., is gassed with carbogen and has the following composition: NaCl 119 mM; KCl 4.8 mM; CaCl2×2 H2O 1 mM; MgSO4×7 H2O 1.4 mM; KH2PO4 1.2 mM; NaHCO3 25 mM; glucose 10 mM; bovine serum albumin 0.001%. The force of contraction is detected with Statham UC2 cells, amplified and digitized via A/D converters (DAS-1802 HC, Keithley Instruments, Munich) and recorded in parallel on chart recorders. Contractions are induced by addition of phenylephrine.
After several (generally 4) control cycles, the substance to be investigated is added in each further run in increasing dosage, and the level of the contraction achieved under the influence of the test substance is compared with the level of the contraction reached in the last preceding run. The concentration necessary to reduce the contraction reached in the preceding control by 50% is calculated from this (IC50). The standard application volume is 5 μl. The proportion of DMSO in the bath solution corresponds to 0.1%.

With `CC(CCCCNC(=O)C(c1ccc(CN2N=C(c3ccccc3)OCC2=O)cc1)C1CCCC1)C(=O)O` (single isomer, unassigned; (+)) [Example 10, (+)-6-{[2-cyclopentyl-2-{4-[(5-oxo-2-phenyl-5,6-dihydro-4H-1,3,4-oxadiazin-4-yl)methyl]phenyl}-acetyl]amino}-2-methylhexanoic acid], at sGC, the “MEC (minimum effective concentration), sGC-activating activity in the CHO reporter cell” value (“MEC … in the CHO reporter cell” for short) was 100 nM. On to `O=c1onc2cnc3ccccc3n12` [ODQ, 1H-1,2,4-oxadiazolo-(4,3a)-quinoxalin-1-one, reference compound], for which, on Heme-containing sGC (10 μM ODQ), the “Stimulation (n-fold) of heme-containing sGC by ODQ alone” value is 3.0 n-fold. For `CCN(CC)[N+]([O-])=NO` [DEA/NO, 2-(N,N-diethylamino)diazenolate 2-oxide, reference compound], the “Stimulation (n-fold) of heme-containing sGC by DEA/NO alone” value at Heme-containing sGC (0.1 μM DEA/NO) was 22.2 n-fold. For the molecule `O=C(O)CCCCCNC(=O)C(c1ccc(CN2N=C(c3ccccc3)OCC2=O)cc1)C1CCCC1` (stereo not drawn) [Example 19, 6-[(Cyclopentyl{4-[(5-oxo-2-phenyl-5,6-dihydro-4H-1,3,4-oxadiazin-4-yl)methyl]phenyl}acetyl)-amino]hexanoic Acid], the “MEC … in the CHO reporter cell” value at sGC was found to be 100 nM. Turning to `CC(C(C(=O)NCCCCC1(C(=O)O)CC1)c1ccc(CN2N=C(c3ccccc3)OCC2=O)cc1)C(F)(F)F` (stereo not drawn) [Example 24, 1-{4-[(4,4,4-trifluoro-3-methyl-2-{4-[(5-oxo-2-phenyl-5,6-dihydro-4H-1,3,4-oxadiazin-4-yl)methyl]-phenyl}-butanoyl)amino]butyl}cyclopropanecarboxylic acid], on sGC, the “MEC … in the CHO reporter cell” value worked out at 1 nM. Moreover, in experiment [1], the “MEC (minimum effective concentration), activating action at the sGC enzyme” value (shortened to “MEC … at the sGC enzyme”) came to 5.5 nM and the EC50 worked out at 184 nM.

Turning to `CC(CCCCNC(=O)C(c1ccc(CN2N=C(c3ccccc3)OCC2=O)cc1)C1CCCC1)C(=O)O` (single isomer, unassigned; (+)) [Example 11, (+)-6-{[2-cyclopentyl-2-{4-[(5-oxo-2-phenyl-5,6-dihydro-4H-1,3,4-oxadiazin-4-yl)methyl]phenyl}-acetyl]amino}-2-methylhexanoic acid], on sGC, the “MEC … in the CHO reporter cell” value turned out to be 100 nM.

With `O=C(NCCCCC1(C(=O)O)CC1)C(c1ccc(Cn2nc(-c3ccccc3)ccc2=O)cc1)C1CCCC1` (stereo not drawn) [Example 20], on sGC, the “MEC … in the CHO reporter cell” value turned out to be 3 nM. The molecule further gave a concentration for half-maximal inhibition (IC50) in the experiment with saphenous artery of 70 nM. In experiment [1], the “MEC … at the sGC enzyme” value is listed as 13 nM and the EC50 is 650 nM. As to `O=C(O)CC1(CCCNC(=O)C(c2ccc(CN3N=C(c4ccccc4)OCC3=O)cc2)C2CCCC2)CC1` (stereo not drawn) [Example 18, (1-{3-[(Cyclopentyl{4-[(5-oxo-2-phenyl-5,6-dihydro-4H-1,3,4-oxadiazin-4-yl)methyl]phenyl}-acetyl)amino]propyl}cyclopropyl)acetic Acid], at sGC, the “MEC … in the CHO reporter cell” value was found to be 30 nM. In the case of `O=C(NC/C=C/CC1(C(=O)O)CC1)C(c1ccc(CN2N=C(c3ccccc3)OCC2=O)cc1)C1CCCC1` (single isomer, unassigned; (-)) [Example 15], the “MEC … in the CHO reporter cell” value on sGC is 20 nM. On to `CCC(C)C(C(=O)NCCCCC1(C(=O)O)CC1)c1ccc(CN2N=C(c3ccccc3)OCC2=O)cc1` (single isomer, unassigned; (+)) [Example 5, (+)-1-(4-{[3-methyl-2-{4-[(5-oxo-2-phenyl-5,6-dihydro-4H-1,3,4-oxadiazin-4-yl)methyl]phenyl}-pentanoyl]amino}butyl)cyclopropanecarboxylic acid], for which, at sGC, the “MEC … in the CHO reporter cell” value was found to be 6.5 nM. In the experiment with saphenous artery, this molecule displayed a 50% inhibitory concentration (IC50) of 297 nM. Besides, in experiment [1], the “MEC … at the sGC enzyme” value is on record as 58 nM and the EC50 is 1500 nM.
